Source: patent US20230085307A1, “PYRIDAZINONE COMPOUND AND HERBICIDE” (NISSAN CHEMICAL CORPORATION, priority 2019, published 2023)

Key:
lambsquarters [1] = assay: Test Example 4: herbicidal effect by soil treatment (Table 19, symbol O); assay type: in vivo, lambsquarters (Chenopodium album); details: amount of applied herbicide 320 g/ha
Procedure, shortened: (§1)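 Applied as a water-diluted emulsion, the compound was sprayed onto soil covering newly sown seeds. Evaluation came three weeks after application, in a greenhouse held at 25° C. to 30° C.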

Italian ryegrass [2] = assay: Test Example 4: herbicidal effect by soil treatment (Table 19, symbol K); assay type: in vivo, Italian ryegrass (Lolium multiflorum); details: amount of applied herbicide 320 g/ha
Procedure, shortened: as §1

rice flat sedge = assay: Test Example 3: herbicidal effect by foliage application, Wagner pot (Table 18, symbol E); assay type: in vivo, rice flat sedge (Cyperus iria)
Procedure, shortened: (§2)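 Plants were sown in alluvial soil held under 0.1–0.5 cm standing water and grown 14 days in a greenhouse at 25–30 °C. An emulsifiable formulation, water-diluted to the set dose, was then sprayed onto the foliage, and effects were scored three weeks later using previously defined criteria.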

redroot pigweed [3] = assay: Test Example 4: herbicidal effect by soil treatment (Table 19, symbol N); assay type: in vivo, redroot pigweed (Amaranthus retroflexus); details: amount of applied herbicide 320 g/ha
Procedure, shortened: as §1

velvetleaf [4] = assay: Test Example 4: herbicidal effect by soil treatment (Table 19, symbol M); assay type: in vivo, velvetleaf (Abutilon theophrasti); details: amount of applied herbicide 320 g/ha
Procedure, shortened: as §1

late watergrass = assay: Test Example 1: herbicidal activity, application before weed generation under submerged conditions (Table 16, symbol A); assay type: in vivo, late watergrass (Echinochloa oryzicola)
Procedure, shortened: (§3)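 Submerged Wagner pots (alluvial soil, 4 cm water) sown with weed seeds and planted with 2.5-leaf rice seedlings; emulsifiable concentrate diluted in water applied to water surface on sowing day. Held in greenhouse at 25-30 °C; injury scored 0-5 by herbicidal rate after three weeks.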

persian speedwell [5] = assay: Test Example 4: herbicidal effect by soil treatment (Table 19, symbol R); assay type: in vivo, Persian speedwell (Veronica persica); details: amount of applied herbicide 320 g/ha
Procedure, shortened: as §1

windgrass [6] = assay: Test Example 4: herbicidal effect by soil treatment (Table 19, symbol L); assay type: in vivo, windgrass (Apera spica-venti); details: amount of applied herbicide 320 g/ha
Procedure, shortened: as §1

southern crabgrass [7] = assay: Test Example 4: herbicidal effect by soil treatment (Table 19, symbol F); assay type: in vivo, southern crabgrass (Digitaria ciliaris); details: amount of applied herbicide 320 g/ha
Procedure, shortened: as §1

oval-leafed pondweed = assay: Test Example 1: herbicidal activity, application before weed generation under submerged conditions (Table 16, symbol C); assay type: in vivo, oval-leafed pondweed (Monochoria vaginalis)
Procedure, shortened: as §3

Japanese bulrush = assay: Test Example 1: herbicidal activity, application before weed generation under submerged conditions (Table 16, symbol B); assay type: in vivo, Japanese bulrush (Schoenoplectus juncoides)
Procedure, shortened: as §3

chickweed [8] = assay: Test Example 4: herbicidal effect by soil treatment (Table 19, symbol P); assay type: in vivo, common chickweed (Stellaria media); details: amount of applied herbicide 320 g/ha
Procedure, shortened: as §1

barnyard grass [9] = assay: Test Example 3: herbicidal effect by foliage application, Wagner pot (Table 18, symbol H); assay type: in vivo, barnyard grass (Echinochloa crus-galli)
Procedure, shortened: as §2

green foxtail [10] = assay: Test Example 4: herbicidal effect by soil treatment (Table 19, symbol G); assay type: in vivo, green foxtail (Setaria viridis); details: amount of applied herbicide 320 g/ha
Procedure, shortened: as §1

wild oat [11] = assay: Test Example 4: herbicidal effect by soil treatment (Table 19, symbol I); assay type: in vivo, wild oat (Avena fatua); details: amount of applied herbicide 320 g/ha
Procedure, shortened: as §1

Chinese sprangletop = assay: Test Example 3: herbicidal effect by foliage application, Wagner pot (Table 18, symbol D); assay type: in vivo, chinese sprangletop (Leptochloa chinensis)
Procedure, shortened: as §2

barnyard grass [12] = assay: Test Example 4: herbicidal effect by soil treatment (Table 19, symbol H); assay type: in vivo, barnyard grass (Echinochloa crus-galli); details: amount of applied herbicide 320 g/ha
Procedure, shortened: as §1

blackgrass [13] = assay: Test Example 4: herbicidal effect by soil treatment (Table 19, symbol J); assay type: in vivo, blackgrass (Alopecurus myosuroides); details: amount of applied herbicide 320 g/ha
Procedure, shortened: as §1

chickweed [14] = assay: Test Example 5: herbicidal effect by foliage application, plastic box (Table 20, symbol P); assay type: in vivo, common chickweed (Stellaria media); details: amount of applied herbicide 320 g/ha; foliage application after 14-day growth; evaluated three weeks after application
Procedure, shortened: (§4)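 Sow seeds spot-wise in sterilized diluvial soil; cover with ~1.5 cm soil. Grow 14 days in greenhouse, 25° C. to 30° C. Spray foliage with emulsion diluted to predetermined amount. Rate effect after 3 weeks.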

velvetleaf [15] = assay: Test Example 5: herbicidal effect by foliage application, plastic box (Table 20, symbol M); assay type: in vivo, velvetleaf (Abutilon theophrasti); details: amount of applied herbicide 320 g/ha; foliage application after 14-day growth; evaluated three weeks after application
Procedure, shortened: as §4

green foxtail [16] = assay: Test Example 5: herbicidal effect by foliage application, plastic box (Table 20, symbol G); assay type: in vivo, green foxtail (Setaria viridis); details: amount of applied herbicide 320 g/ha; foliage application after 14-day growth; evaluated three weeks after application
Procedure, shortened: as §4

Italian ryegrass [17] = assay: Test Example 5: herbicidal effect by foliage application, plastic box (Table 20, symbol K); assay type: in vivo, Italian ryegrass (Lolium multiflorum); details: amount of applied herbicide 320 g/ha; foliage application after 14-day growth; evaluated three weeks after application
Procedure, shortened: as §4

persian speedwell [18] = assay: Test Example 5: herbicidal effect by foliage application, plastic box (Table 20, symbol R); assay type: in vivo, Persian speedwell (Veronica persica); details: amount of applied herbicide 320 g/ha; foliage application after 14-day growth; evaluated three weeks after application
Procedure, shortened: as §4

barnyard grass [19] = assay: Test Example 5: herbicidal effect by foliage application, plastic box (Table 20, symbol H); assay type: in vivo, barnyard grass (Echinochloa crus-galli); details: amount of applied herbicide 320 g/ha; foliage application after 14-day growth; evaluated three weeks after application
Procedure, shortened: as §4

wild oat [20] = assay: Test Example 5: herbicidal effect by foliage application, plastic box (Table 20, symbol I); assay type: in vivo, wild oat (Avena fatua); details: amount of applied herbicide 320 g/ha; foliage application after 14-day growth; evaluated three weeks after application
Procedure, shortened: as §4

lambsquarters [21] = assay: Test Example 5: herbicidal effect by foliage application, plastic box (Table 20, symbol O); assay type: in vivo, lambsquarters (Chenopodium album); details: amount of applied herbicide 320 g/ha; foliage application after 14-day growth; evaluated three weeks after application
Procedure, shortened: as §4

blackgrass [22] = assay: Test Example 5: herbicidal effect by foliage application, plastic box (Table 20, symbol J); assay type: in vivo, blackgrass (Alopecurus myosuroides); details: amount of applied herbicide 320 g/ha; foliage application after 14-day growth; evaluated three weeks after application
Procedure, shortened: as §4

windgrass [23] = assay: Test Example 5: herbicidal effect by foliage application, plastic box (Table 20, symbol L); assay type: in vivo, windgrass (Apera spica-venti); details: amount of applied herbicide 320 g/ha; foliage application after 14-day growth; evaluated three weeks after application
Procedure, shortened: as §4

southern crabgrass [24] = assay: Test Example 5: herbicidal effect by foliage application, plastic box (Table 20, symbol F); assay type: in vivo, southern crabgrass (Digitaria ciliaris); details: amount of applied herbicide 320 g/ha; foliage application after 14-day growth; evaluated three weeks after application
Procedure, shortened: as §4

redroot pigweed [25] = assay: Test Example 5: herbicidal effect by foliage application, plastic box (Table 20, symbol N); assay type: in vivo, redroot pigweed (Amaranthus retroflexus); details: amount of applied herbicide 320 g/ha; foliage application after 14-day growth; evaluated three weeks after application
Procedure, shortened: as §4

[26] = amount of applied herbicide 320 g/ha

Question: Which results are given for CCCC(=O)Oc1c(C)nn(C)c(=O)c1-c1c(-c2ccc(Cl)cc2OC)sc2ccc(F)cc12 [2-369]?
Answer: herbicidal effect, O: lambsquarters (lambsquarters [1]): 0 (Herbicidal rate of 5% or less (almost no effect)); herbicidal effect, K: Italian ryegrass (Italian ryegrass [2]): 0 (Herbicidal rate of 5% or less (almost no effect)); herbicidal effect on E: rice flat sedge (rice flat sedge; [26]): 4 (Herbicidal rate of 70% or more and less than 90%); herbicidal effect, N: redroot pigweed (redroot pigweed [3]): 0 (Herbicidal rate of 5% or less (almost no effect)); herbicidal effect, M: velvetleaf (velvetleaf [4]): 0 (Herbicidal rate of 5% or less (almost no effect)); Herbicidal effect on A: late watergrass (grade 0-5) (late watergrass; 320 g/ha applied herbicide): 0 (Herbicidal rate of 5% or less (almost no effect)); herbicidal effect, R: persian speedwell (persian speedwell [5]): 0 (Herbicidal rate of 5% or less (almost no effect)); herbicidal effect, L: windgrass (windgrass [6]): 3 (Herbicidal rate of 40% or more and less than 70%); herbicidal effect, F: southern crabgrass (southern crabgrass [7]): 0 (Herbicidal rate of 5% or less (almost no effect)); Herbicidal effect on C: oval-leafed pondweed (grade 0-5) (oval-leafed pondweed; 320 g/ha applied herbicide): 2 (Herbicidal rate of 20% or more and less than 40%); Herbicidal effect on B: Japanese bulrush (grade 0-5) (Japanese bulrush; 320 g/ha applied herbicide): 0 (Herbicidal rate of 5% or less (almost no effect)); herbicidal effect, P: chickweed (chickweed [8]): 0 (Herbicidal rate of 5% or less (almost no effect)); herbicidal effect on H: barnyard grass (barnyard grass [9]; [26]): 4 (Herbicidal rate of 70% or more and less than 90%); herbicidal effect, G: green foxtail (green foxtail [10]): 0 (Herbicidal rate of 5% or less (almost no effect)); herbicidal effect, I: wild oat (wild oat [11]): 0 (Herbicidal rate of 5% or less (almost no effect)); herbicidal effect on D: Chinese sprangletop (Chinese sprangletop; [26]): 5 (Herbicidal rate of 90% or more (almost completely withered)); herbicidal effect, H: barnyard grass (barnyard grass [12]): 0 (Herbicidal rate of 5% or less (almost no effect)); herbicidal effect, J: blackgrass (blackgrass [13]): 0 (Herbicidal rate of 5% or less (almost no effect))

Question: CCOc1cc(F)ccc1-c1sc2cc(F)c(F)cc2c1-c1c(O)c(C)nn(C)c1=O [5-031] was tested. Which “O: lambsquarters, herbicidal effect grade” value (lambsquarters [1]) did it give?
Answer: 5 (Herbicidal rate of 90% or more (almost completely withered))

Question: What about the “Herbicidal effect by foliage application, P: chickweed” value (chickweed [14]) of the same compound?
Answer: 5 (Herbicidal rate of 90% or more (almost completely withered))

Question: What about the “K: Italian ryegrass, herbicidal effect grade” value (Italian ryegrass [2]) of the same compound?
Answer: 0 (Herbicidal rate of 5% or less (almost no effect))

Question: And the “herbicidal effect on rice flat sedge (E)” value (rice flat sedge; 320 g/ha)?
Answer: 5 (Herbicidal rate of 90% or more (almost completely withered))

Question: What about the “N: redroot pigweed, herbicidal effect grade” value (redroot pigweed [3]) of the same compound?
Answer: 5 (Herbicidal rate of 90% or more (almost completely withered))

Question: What about the “Herbicidal effect by foliage application, M: velvetleaf” value (velvetleaf [15]) of the same compound?
Answer: 5 (Herbicidal rate of 90% or more (almost completely withered))

Question: What about the “M: velvetleaf, herbicidal effect grade” value (velvetleaf [4]) of the same compound?
Answer: 4 (Herbicidal rate of 70% or more and less than 90%)

Question: What about the “Herbicidal effect, A: late watergrass” value (late watergrass; [26]) of the same compound?
Answer: 2 (Herbicidal rate of 20% or more and less than 40%)

Question: And the “Herbicidal effect by foliage application, G: green foxtail” value (green foxtail [16])?
Answer: 5 (Herbicidal rate of 90% or more (almost completely withered))

Question: What about the “Herbicidal effect by foliage application, K: Italian ryegrass” value (Italian ryegrass [17]) of the same compound?
Answer: 2 (Herbicidal rate of 20% or more and less than 40%)

Question: And the “L: windgrass, herbicidal effect grade” value (windgrass [6])?
Answer: 5 (Herbicidal rate of 90% or more (almost completely withered))

Question: And the “F: southern crabgrass, herbicidal effect grade” value (southern crabgrass [7])?
Answer: 4 (Herbicidal rate of 70% or more and less than 90%)

Question: And the “Herbicidal effect, C: oval-leafed pondweed” value (oval-leafed pondweed; [26])?
Answer: 0 (Herbicidal rate of 5% or less (almost no effect))

Question: And the “Herbicidal effect by foliage application, R: persian speedwell” value (persian speedwell [18])?
Answer: 5 (Herbicidal rate of 90% or more (almost completely withered))

Question: And the “Herbicidal effect by foliage application, H: barnyard grass” value (barnyard grass [19])?
Answer: 5 (Herbicidal rate of 90% or more (almost completely withered))

Question: What about the “Herbicidal effect, B: Japanese bulrush” value (Japanese bulrush; [26]) of the same compound?
Answer: 0 (Herbicidal rate of 5% or less (almost no effect))

Question: And the “P: chickweed, herbicidal effect grade” value (chickweed [8])?
Answer: 3 (Herbicidal rate of 40% or more and less than 70%)

Question: What about the “herbicidal effect on barnyard grass (H)” value (barnyard grass [9]; 320 g/ha) of the same compound?
Answer: 5 (Herbicidal rate of 90% or more (almost completely withered))

Question: And the “G: green foxtail, herbicidal effect grade” value (green foxtail [10])?
Answer: 5 (Herbicidal rate of 90% or more (almost completely withered))

Question: What about the “Herbicidal effect by foliage application, I: wild oat” value (wild oat [20]) of the same compound?
Answer: 4 (Herbicidal rate of 70% or more and less than 90%)

Question: And the “Herbicidal effect by foliage application, O: lambsquarters” value (lambsquarters [21])?
Answer: 5 (Herbicidal rate of 90% or more (almost completely withered))

Question: What about the “I: wild oat, herbicidal effect grade” value (wild oat [11]) of the same compound?
Answer: 1 (Herbicidal rate of 5% or more and less than 20%)

Question: And the “Herbicidal effect by foliage application, J: blackgrass” value (blackgrass [22])?
Answer: 5 (Herbicidal rate of 90% or more (almost completely withered))

Question: What about the “Herbicidal effect by foliage application, L: windgrass” value (windgrass [23]) of the same compound?
Answer: 5 (Herbicidal rate of 90% or more (almost completely withered))

Question: And the “Herbicidal effect by foliage application, F: southern crabgrass” value (southern crabgrass [24])?
Answer: 5 (Herbicidal rate of 90% or more (almost completely withered))

Question: What about the “Herbicidal effect by foliage application, N: redroot pigweed” value (redroot pigweed [25]) of the same compound?
Answer: 5 (Herbicidal rate of 90% or more (almost completely withered))

Question: And the “herbicidal effect on Chinese sprangletop (D)” value (Chinese sprangletop; 320 g/ha)?
Answer: 4 (Herbicidal rate of 70% or more and less than 90%)

Question: And the “H: barnyard grass, herbicidal effect grade” value (barnyard grass [12])?
Answer: 3 (Herbicidal rate of 40% or more and less than 70%)

Question: What about the “J: blackgrass, herbicidal effect grade” value (blackgrass [13]) of the same compound?
Answer: 3 (Herbicidal rate of 40% or more and less than 70%)
